Experimental data from patent US12678509B2, “Inhibitor of apoptosis (IAP) protein antagonists” (Sanford Burnham Prebys Medical Discovery Institute, priority 2019, dated 2026).
pEC50, pIC50, pKi: −log10 of the molar value.

Experiments:
BIR3 domain of cIAP1 = BIR3 domain of cIAP1 (Homo sapiens, UniProt Q13490); assay: Fluorescence polarization assay; assay type: binding; conditions: SMAC-FITC probe, Ki calculated from IC50
Description: (§1) Binding of compounds to ML-IAP and BIR3 domain of cIAP1, cIAP2 and XIAP was determined by fluorescence polarization. Assay buffer was 100 mM KH2PO4 at pH 7.5, 50 μM ZnSO4, 1 mM TCEP (Tris(2-carboxyethyl)phosphine hydrochloride) and 50 nM SMAC-FITC probe (AbuRPF-K(5-Fam)-NH2) as described by Z. Nikolovska-Coleska et al.^9. cIAP1 and XIAP were present at 800 nM while cIAP2 and MLIAP were present at 1.5 μM. Compounds in 3-fold dilutions were added to the plates ranging from 30 μM to 1.5 nM. Assays were run in 384-well black plates read (Greiner Bio-One #784076) in an Analyst in fluorescence polarization mode with excitation at 485 nm and emission at 535 nm. Data was fit to a nonlinear regression curve in GraphPad Prism 8 to determine the IC50 values of the compounds. Ki's were then calculated from the IC50 values using equation: Ki=[I]50/([L]50/Kd+[P]0/Kd+1) formulated by Z. Nikolovska-Coleska et al.

BIR3 domain of cIAP2 = BIR3 domain of cIAP2 (Homo sapiens, UniProt Q13489); assay: Fluorescence polarization assay; assay type: binding; conditions: SMAC-FITC probe, Ki calculated from IC50
Description: as §1

BIR3 domain of XIAP = BIR3 domain of XIAP (Homo sapiens, UniProt P98170); assay: Fluorescence polarization assay; assay type: binding; conditions: SMAC-FITC probe, Ki calculated from IC50
Description: as §1

ML-IAP = molecular target: T1, ML-IAP (Homo sapiens, UniProt Q96CA5); assay: Fluorescence polarization assay; assay type: binding; conditions: SMAC-FITC probe, Ki calculated from IC50
T1 sequence (Q96CA5 1-298): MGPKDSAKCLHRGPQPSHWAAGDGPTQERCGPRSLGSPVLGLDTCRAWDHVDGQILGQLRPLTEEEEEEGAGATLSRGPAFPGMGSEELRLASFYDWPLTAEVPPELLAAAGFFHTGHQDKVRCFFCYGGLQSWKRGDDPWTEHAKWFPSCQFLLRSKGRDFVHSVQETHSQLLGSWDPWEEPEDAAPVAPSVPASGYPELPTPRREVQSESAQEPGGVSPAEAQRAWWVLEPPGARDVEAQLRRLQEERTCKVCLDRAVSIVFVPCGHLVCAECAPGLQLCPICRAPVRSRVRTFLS
Description: as §1

[1] = system: latently infected cell line Jurkat 2D10; assay: HIV Jurkat 2D10 cells GFP+ assay (reversal of HIV latency); assay type: cell-based; conditions: Homo sapiens, Jurkat, 48 h, read-out: Jurkat 2D10 GFP+ EC50
Description: Several compounds (Table 5) were tested for their efficacy in the reversal of HIV latency in the latently infected cell line Jurkat 2D10. Jurkat 2D10 cells were treated with different doses of the compounds, or one of the following compounds: BV-6, SM-164, Birinapant, LCL-161, GDC-0152, AT-406 for 48 hours. Reversal of HW latency was evaluated by analyzing GFP expression using flow cytometry. Induction of GFP expression was compared to baseline GFP levels detected in the absence of treatment.

AML-SH-065 = assay: Cell viability in patient derived AML samples (CellTiterGlo, 72 h); assay type: cell-based, human; conditions: for pIC50: Homo sapiens, 72 h, read-out: AML-SH-065 IC50; for AML-SH-065 Efficacy: patient derived AML sample AML-SH-065, 72 h, cell viability at max. concentration
Description: (§2) Patient AML samples were gathered (under IRB 13-6180) from Scripps MD Anderson, La Jolla, CA Fresh blood samples were subjected to gradient density centrifugation with Ficoll-Paque™ PLUS (17-1440-02, GE Healthcare) and peripheral blood mononuclear cells purified as per manufacturer's protocol.
(§3) 75 nL of 1000× serially diluted IAP inhibitors were spotted in triplicate onto 384-well tissue culture treated plates (Greiner) using a Labcyte Echo acoustic dispensing device. Patient-derived AML cells were maintained in mTeSR1^+1× supplements (Stemcell Technologies) and penicillin/streptomycin/L-glutamine (Omega Scientific Inc.) and Fungizone (HyClone). 25 μL of cell dilution were plated into 384-well plate containing the drugs and incubated for 72 h. Cell viability was assessed by adding 25 μL CellTiterGlo (Promega Corp.) on a Synergy 2 plate reader with Gen5 software (Biotek). % viability was calculated by normalizing luminescence to vehicle only controls (DMSO) in Microsoft Excel and plotted using GraphPad Prism 8. The IC50 values were calculated using log(inhibitor) vs. response—Variable slope (four parameters) equation. (FIG. 6)

AML-SH-075 = assay: as above; assay type: cell-based, human; conditions: for pIC50: Homo sapiens, 72 h, read-out: AML-SH-075 IC50; for AML-SH-075 Efficacy: patient derived AML sample AML-SH-075, 72 h, cell viability at max. concentration
Description: as §2, §3

AML-SH-074 = assay: as above; assay type: cell-based, human; conditions: for pIC50: Homo sapiens, 72 h, read-out: AML-SH-074 IC50; for AML-SH-074 Efficacy: patient derived AML sample AML-SH-074, 72 h, cell viability at max. concentration
Description: as §2, §3

NB-4 = assay: Cell viability (CellTiter-Glo); assay type: cell-based, Human; conditions: Homo sapiens, NB-4, 72 h, read-out: NB-4 Viability 72 h IC50
Description: The compound 18a was tested in 16 different cell lines. For 6-day compound treatment 1700 cells per well were plated in a 384-well plate (Corning #781098) and incubated overnight at 37° C./5% CO2. […] Afterwards, 20 μL CellTiter-Glo reagent (Promega, #G7570) was added to each well outside of the incubator and the plates were read for luminescence on a Spark® multimode microplate reader (Tecan). Data was fit in GraphPad Prism 8 to a nonlinear regression curve to determine the IC50 of the compounds. […]

[2] = Pharmacokinetic study in mice, snapshot PK; assay type: in vivo; conditions: female, C57BL/6J, mouse, plasma, ip, one hour after i.p. injection of 10 mg/kg
Description: (§4) All animal procedures were approved by the Sanford Burnham Prebys Medical Discovery Institute Institutional Animal Care and Use Committee and were performed according to the NIH guidelines for the Care and Use of Laboratory Animals. Adult female C57BL/6J were purchased from JAX laboratories and housed with free access to food and water on a 12 h light/dark cycle. Compounds were formulated in 5% DMSO, 10% Tween-80, and 85% dH2O and injected intraperitoneally (i.p.) into mice at doses of 10 mg/kg. For snapshot PK analysis, blood samples were collected retro-orbitally one hour after injection and for the time course PK study, blood samples were collected at 15 min, 30 min, 1 h, 2 h, 4 h, 6 h, 24 h time points. For the blood samples plasma was separated by centrifugation. Plasma samples were extracted with acetonitrile:water 4:1 with 0.1% formic acid containing indometacin as an internal standard. Samples were centrifuged and supernatants were diluted with acetonitrile:water and analyzed via LC-MS/MS on a Shimadzu Nexera X2 HPLC coupled to an AB Sciex 6500 QTRAP.
Plasma exposure of selected compounds at 1 h compared.
Plasma levels of parent compound determined one hour after i.p. injection of 10 mg/kg

SKOV-3 = assay: Cell viability (CellTiter-Glo), 48 hrs; assay type: cell-based; conditions: Homo sapiens, SK-OV-3, 48 h, read-out: SKOV-3 Viability 48 h IC50
Description: One thousand seven hundred cells per well were plated in a 384 well plate and incubated overnight at 37° C./5% CO2. The following day, compounds in 10-fold dilutions were added to the plates and the plates returned to the incubator for 48 hrs. 48 hrs later, plates were removed to the bench and 20 μL CellTiter-Glo reagent was added to each well and the plates were read for luminescence on a Spark® multimode microplate reader (Tecan). Data were fit using PRISM to a nonlinear regression curve to determine the IC50 of the compounds.

MOLM 13 = assay: Cell viability (CellTiter-Glo), 6-day compound treatment; assay type: cell-based, Human; conditions: Homo sapiens, MOLM-13, 144 h, read-out: MOLM 13 Viability 6 d IC50
Description: The compound 18a was tested in 16 different cell lines. For 6-day compound treatment 1700 cells per well were plated in a 384-well plate (Corning #781098) and incubated overnight at 37° C./5% CO2. The following day, compounds in 10-fold dilutions were added to the plates and the plates were incubated for 6 days. Afterwards, 20 μL CellTiter-Glo reagent (Promega, #G7570) was added to each well outside of the incubator and the plates were read for luminescence on a Spark® multimode microplate reader (Tecan). Data was fit in GraphPad Prism 8 to a nonlinear regression curve to determine the IC50 of the compounds. […]

[3] = Pharmacokinetic study in mice, time course PK; assay type: in vivo; conditions: female, C57BL/6J, mouse, IP dose 10 mg/kg, plasma
Description: as §4
In vivo pharmacokinetic data for compound 18m in mice. Compound was formulated in 5% DMSO, 10% Tween 80 and water and administered by intraperitoneal injection.

Sequence of BIR3 domain of cIAP2 (Q13489 238-349 limits assumed): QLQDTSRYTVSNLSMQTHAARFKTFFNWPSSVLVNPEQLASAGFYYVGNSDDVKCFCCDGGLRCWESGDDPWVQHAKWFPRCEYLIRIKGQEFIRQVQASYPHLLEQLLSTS
Sequence of BIR3 domain of cIAP1 (Q13490 253-363 limits assumed): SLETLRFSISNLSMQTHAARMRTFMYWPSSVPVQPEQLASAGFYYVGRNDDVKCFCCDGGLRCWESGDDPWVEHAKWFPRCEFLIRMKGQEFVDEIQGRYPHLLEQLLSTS
Sequence of BIR3 domain of XIAP (P98170 241-356 limits assumed): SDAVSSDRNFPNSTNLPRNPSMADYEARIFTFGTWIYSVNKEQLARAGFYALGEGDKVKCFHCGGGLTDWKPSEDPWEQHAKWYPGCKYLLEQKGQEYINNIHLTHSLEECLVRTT

Row | Compound | pKi (BIR3 domain of cIAP1) | pKi (BIR3 domain of cIAP2) | pKi (BIR3 domain of XIAP) | pKi (ML-IAP) | pEC50 [1] | pIC50 (AML-SH-065) | AML-SH-065 Efficacy (AML-SH-065) | pIC50 (AML-SH-075) | AML-SH-075 Efficacy (AML-SH-075) | pIC50 (AML-SH-074) | AML-SH-074 Efficacy (AML-SH-074) | pIC50 (NB-4) | concentration at 1 h [2] [µM] | pIC50 (SKOV-3) | pIC50 (MOLM 13) | AUC(0-t) [3] [µM·h] | Cmax [3] [µM] | Tmax [3] [h] | half-life ([3]; terminal half-life) [h]
1 | CN[C@@H](C)C(=O)N[C@H]1CCS[C@H]2CC(C)(C)[C@@H](C(=O)N[C@H]3c4ccccc4C[C@H]3OCC#Cc3ccc(CO[C@@H]4Cc5ccccc5[C@@H]4NC(=O)[C@H]4N5C(=O)[C@@H](NC(=O)[C@H](C)NC)CCS[C@H]5CC4(C)C)cc3)N2C1=O [Compound 18e, (2S)-1-{[(4S,7S,9aS)-7-{[(1S,2R)-2-({3-[4-({[(1S,2R)-1-({[(4S,7S,9aS)-8,8-Dimethyl-4-{[(2S)-2-(methylammonio)propanoyl]amino}-5-oxooctahydropyrrolo[2,1-b][1,3]thiazepin-7-yl]carbonyl}amino)-2,3-dihydro-1H-inden-2-yl]oxy}methyl)phenyl]prop-2-ynyl}oxy)-2,3-dihydro-1H-inden-1-yl]carbamoyl}-8,8-dimethyl-5-oxooctahydropyrrolo[2,1-b][1,3]thiazepin-4-yl]amino}-N-methyl-1-oxopropan-2-ammonium dichloride] | 7.00 to 7.30 | 6.70 to 7.00 | ≥ 7.30 | 6.70 to 7.00 | > 9.00 | 7.00 to 8.00 | I (I < 10%) | 5.00 to 6.00 | I (I < 10%) | 6.00 to 7.00 | I (I < 10%) | 7.00 to 8.00 | 6.2 | > 8.00 | 6.00 to 7.00 | – | – | – | –
2 | CN[C@@H](C)C(=O)N[C@H]1CCS[C@H]2CC(C)(C)[C@@H](C(=O)N[C@H]3c4ccccc4C[C@H]3OCc3ccc(CO[C@@H]4Cc5ccccc5[C@@H]4NC(=O)[C@H]4N5C(=O)[C@@H](NC(=O)[C@H](C)NC)CCS[C@H]5CC4(C)C)cc3)N2C1=O [Compound 18g, (2S)-1-{[(4S,7S,9aS)-7-{[(1S,2R)-2-{[4-({[(1S,2R)-1-({[(4S,7S,9aS)-8,8-Dimethyl-4-{[(2S)-2-(methylammonio)propanoyl]amino}-5-oxooctahydropyrrolo[2,1-b][1,3]thiazepin-7-yl]carbonyl}amino)-2,3-dihydro-1H-inden-2-yl]oxy}methyl)benzyl]oxy}-2,3-dihydro-1H-inden-1-yl]carbamoyl}-8,8-dimethyl-5-oxooctahydropyrrolo[2,1-b][1,3]thiazepin-4-yl]amino}-N-methyl-1-oxopropan-2-ammonium dichloride] | ≥ 7.30 | 7.00 to 7.30 | ≥ 7.30 | 7.00 to 7.30 | 8.00 to 9.00 | 7.00 to 8.00 | I (I < 10%) | 7.00 to 8.00 | I (I < 10%) | 6.00 to 7.00 | I (I < 10%) | > 8.00 | 2.69 | > 8.00 | 7.00 to 8.00 | – | – | – | –
3 | CC[C@H](NC)C(=O)N[C@H]1CCS[C@H]2CC(C)(C)[C@@H](C(=O)N[C@H]3c4ccccc4C[C@H]3OCC#CC#CCO[C@@H]3Cc4ccccc4[C@@H]3NC(=O)[C@H]3N4C(=O)[C@@H](NC(=O)[C@H](CC)NC)CCS[C@H]4CC3(C)C)N2C1=O [Compound 18m, [(1S)-1-{[(4S,7S,9aS)-7-{[(1S,2R)-2-[(6-{[(1S,2R)-1-[(4S,7S,9aS)-8,8-Dimethyl-4-[(2S)-2-(methylazaniumyl)butanamido]-5-oxo-octahydropyrrolo[2,1-b][1,3]thiazepine-7-amido]-2,3-dihydro-1H-inden-2-yl]oxy}hexa-2,4-diyn-1-yl)oxy]-2,3-dihydro-1H-inden-1-yl]carbamoyl}-8,8-dimethyl-5-oxo-octahydropyrrolo[2,1-b][1,3]thiazepin-4-yl]carbamoyl}propyl](methyl)azanium dichloride] | ≥ 7.30 | 7.00 to 7.30 | ≥ 7.30 | 7.00 to 7.30 | 8.00 to 9.00 | > 8.00 | I (I < 10%) | 7.00 to 8.00 | I (I < 10%) | 6.00 to 7.00 | I (I < 10%) | – | 6.59 | > 8.00 | 7.00 to 8.00 | 18.1 | 6.6 | 1 | 3
